In PMC8453901, “GLPG1205, a GPR84 Modulator: Safety, Pharmacokinetics, and Pharmacodynamics in Healthy Subjects” (Clinical Pharmacology in Drug Development, 2021):

Tests used:
[1] = set-up: method as in PMID 32902984; details: human and animals; cited from earlier work
[2] = Study 2 part 2: pharmacokinetics with 250-mg loading dose then 50 mg once daily; type: in vivo, human
Protocol: During study 2, GLPG1205 50 mg or matching placebo was administered as capsules in the morning 30 minutes after the start of a standard breakfast. Subjects were kept in‐house from the evening of day –1 to ≈26 hours after the first dose (day 2), and from the evening of day 13 until day 15. Administration of the study drug was performed daily at the clinical pharmacology unit. Subjects returned for a follow‐up visit at day 35.
In part 1, 24 healthy male subjects were matched into 3 cohorts based on body weight: Cohort A comprised 8 subjects aged 65–74 years, inclusive; cohort B comprised 8 subjects aged ≥75 years (1:1 weight matched with cohort A subjects [± 5 kg]); and cohort C comprised 8 subjects aged 18 to 50 years, inclusive (1:1 weight matched with cohort A subjects [± 5 kg]). All cohorts received GLPG1205 50 mg once daily or matching placebo, in a 3:1 ratio, for 14 days. In the open‐label second part of study 2, 8 subjects (cohort D) aged 65 to 74 years, inclusive, were included to characterize the PK profile after a loading dose of GLPG1205 250 mg on day 1 followed by multiple doses of GLPG1205 50 mg once daily from day 2 to day 14.
In the SAD part of study 1, blood samples (2 mL) for PK assessments were obtained before dosing and at multiple time points on the day of study drug administration (before dosing and 0.5, 1, 2, 4, 6, 8, and 12 hours after dosing) and at 24, 48, and 72 hours after dosing. The predose sample for the next dose level was also used in PK analysis (168 hours after dosing). […] In the MAD part of study 1, blood samples (2 mL) were obtained on days 1, 2, 4, 5, 6, 8, 10, 12, 14, 15, 16, 17, and 18 and at follow‐up (approximately 7 to 10 days after the last dose). These PK blood samples were taken after dosing (1, 2, 4, 6, 8, 12, and 24 hours) on day 1; before dosing on days 4, 6, 8, and 10; and after dosing (1, 2, 4, 6, 8, 12, 24, 72, and 96 hours) on day 14. The following additional PK blood samples were also taken: cohort C, before dosing on day 5; and cohorts D and E, before dosing on day 12. Urine samples were obtained from fractions collected over 6‐ or 12‐hour periods after dosing on days –1, 1, 2, 13, 14, and 15; samples obtained on days –1 and 13 were for cytochrome P450 (CYP) induction analysis only. In study 2, blood samples (2 mL) were obtained on days 1, 2, 5, 7, 10, 14, 15, 17, and 20 and at follow‐up (approximately 21 days after end of study medication administration). Blood samples were taken before dosing and at 1, 2, 4, 6, 8, 12, and 24 hours after drug administration on days 1 and 14 and before dosing on other sampling days.
GLPG1205 plasma concentrations were determined using a validated liquid chromatography with tandem mass spectrometry method. After a protein precipitation with methanol, a chromatographic separation was performed on a Kinetex C18 column (50×3.0 mm, 2.6 μm; Phenomenex, Torrance, California) set at 40°C by using a Nexera high‐performance liquid chromatography (HPLC) system (Shimadzu, Kyoto, Japan) or an Infinity HPLC system (Agilent Technologies, Diegem, Belgium) in isocratic elution mode. A QTRAP6500, QTRAP4000, or API4000 mass spectrometer (AB Sciex, Nieuwerkerk aan den Ijssel, The Netherlands) equipped with a TurboIonSpray probe operated in the multiple reaction monitoring in positive mode was used for quantification. The calibration curves in plasma were linear over the range of 1 to 1000 ng/mL with 1/x^2 as weighting factor. The limit of quantification of the assay in the plasma samples was set at 1 ng/mL.
PK calculations were performed using Phoenix WinNonlin 6.2 (Pharsight Corporation, Palo Alto, California). […] AUC0‐inf was calculated from the area under the plasma concentration‐time curve from time 0 until the time corresponding with the last observed quantifiable concentration + Ct/λz, where Ct was the last observed quantifiable concentration and λz the first‐order terminal rate constant. […]

[3] = set-up: method as in PMID 32902984; details: mouse, rat, and dog; cited from earlier work
[4] = Safety across both studies and all dose groups; type: in vivo, human; details: both studies
Protocol: Safety and tolerability were assessed on the basis of adverse events (AEs), which were monitored throughout both studies. Additional safety assessments included vital signs (including supine [and standing in study 2] heart rate, systolic and diastolic blood pressure, and oral body temperature), 12‐lead electrocardiogram (ECG), clinical laboratory tests (hematology, coagulation [study 2 only], serum/plasma chemistry, urinalysis, urine drug screen, serology, and alcohol breath test), and a comprehensive physical examination. In the SAD part of study 1, clinical laboratory tests, physical examination, and vital signs were assessed at the screening visit, at the time of dosing (0 hours after dose), 24 hours after dosing and at follow‐up (7 to 10 days after the final dose). Vital signs were additionally observed 2 hours after dosing, and the 12‐lead ECG was additionally completed at 1, 2, 6, 8, and 12 hours after dosing. In the MAD part of study 1, all additional safety assessments were performed at screening; days 1, 2, 8, 14, and 15; and at follow‐up. In study 2, additional safety assessments were performed at screening (between 21 and 2 days before the first study drug administration); days 1, 2, 5, 10, 14, 15, and 20 (clinical laboratory tests were not performed on day 20); at early discontinuation; and at follow‐up. For study 2, renal function tests (measurement of estimated creatinine clearance rate using the Cockcroft‐Gault equation) were also included in the clinical laboratory tests for safety assessment.
In both studies, the safety analysis was descriptive and focused on changes from baseline and treatment‐emergent findings.

O=c1nc(OC[C@@H]2COCCO2)cc2n1CCc1cc(C#CC3CC3)ccc1-2 [GLPG1205, 9‐cyclopropylethynyl‐2‐((S)‐1‐[1,4]dioxan‐2‐ylmethoxy)‐6,7‐dihydropyrimido[6,1‐a]isoquinolin‐4‐one]
plasma protein binding [1]: ≥ 92%
steady-state exposure with loading dose vs cohort A without ([2]; 250-mg loading dose + 13 days 50 mg once daily vs 14 days 50 mg once daily): no difference in steady‐state exposure
quantifiability in plasma after last dose ([2]; 144 hours after the last dose on day 14, all subjects): quantifiable in plasma up to day 20
time of maximal mean GLPG1205 concentration ([2]; after 250-mg loading dose on day 1): 12 hours after dosing
day by which steady state in plasma concentration was reached ([2]; after the loading dose of 250 mg): ≤ 2 days
Rac ([2]; cohort D 65-74 y, 250-mg loading dose then 50 mg once daily, day 14, mean (CV%)): 1.35 (22.8)
Rac point estimate (CI), cohort D vs cohort A ([2]; day 14, ratio of cohort D relative to cohort A expressed as a percentage): <.0001 22.11 (18.46‐26.48)
subjects with GLPG1205 below the limit of quantification ([2]; follow-up visit day 35, 504 hours after the last dose): 5 of 8
Cmax ([2]; human, plasma, oral, cohort D 65-74 y, 250-mg loading dose then 50 mg once daily, day 14, mean (CV%)): 2.63 µg/mL
AUC(0-inf) ([2]; human, plasma, oral, cohort D 65-74 y, 250-mg loading dose then 50 mg once daily, day 14, mean (CV%), N = 6): 250 µg·h/mL
half-life ([2]; human, plasma, oral, cohort D 65-74 y, 250-mg loading dose then 50 mg once daily, day 14, mean (CV%), N = 7, read-out: t1/2,λz (converted)): 55.4 h
AUC(0-t) ([2]; human, plasma, oral, cohort D 65-74 y, 250-mg loading dose then 50 mg once daily, day 14, mean (CV%), read-out: AUC0–24h): 53.7 µg·h/mL
concentration at 24 h ([2]; human, plasma, oral, cohort D 65-74 y, 250-mg loading dose then 50 mg once daily, day 14, mean (CV%), read-out: C24h): 2.36 µg/mL
concentration at 504 h ([2]; human, plasma, oral, day 35, 504 hours after the last dose, subjects in whom still quantifiable, read-out: plasma GLPG1205 level at follow-up): 0.00201 to 0.0216 µg/mL
time to reach steady-state exposure ([2]; single 250-mg loading dose): 1 days
oral absolute exposure [3]: ≥ 68%
ECG and vital signs [4]: no clinically significant trends
deaths or serious AEs [4]: No deaths or serious AEs occurred
subjects with headache (TEAE) ([4]; all GLPG1205 dose groups): 17 subjects
subjects with nausea (TEAE) ([4]; all GLPG1205 dose groups): 12 subjects
subjects with treatment-emergent AEs ([4]; all GLPG1205 dose groups): 44 subjects
